Data as given in ChEMBL document CHEMBL1201862, “PubChem BioAssay data set” (2004).
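Following 48 hours of exposure in 96-well plates, responses at five concentrations were used to interpolate endpoints linearly. GI50 marks 50% less growth.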 Activity calls are given as the source filed them. Cut-off read from the data, not from the text of the source: active = GI50 up to about 1.1 µM and inactive = higher.

Tests used:
Experiment in all cases: NCI anticancer screen, dose series, 48 h
786-0 = tested on: 786-0
ACHN = tested on: ACHN
CAKI-1 = tested on: CAKI-1
CCRF-CEM = tested on: CCRF-CEM
HCC 2998 = tested on: HCC 2998
HCT-15 = tested on: HCT-15
LOX IMVI = tested on: LOX IMVI
NCI-H460 = tested on: NCI-H460
NCI-H522 = tested on: NCI-H522
RXF 393 = tested on: RXF 393
SK-MEL-28 = tested on: SK-MEL-28
SK-MEL-2 = tested on: SK-MEL-2
SK-OV-3 = tested on: SK-OV-3
SW-620 = tested on: SW-620
UACC-62 = tested on: UACC-62
RPMI-8226 = tested on: RPMI-8226
OVCAR-4 = tested on: OVCAR-4
MDA-MB-231 = tested on: MDA-MB-231
NCI/ADR-RES = tested on: NCI/ADR-RES

Compound | GI50 (786-0) | GI50 (ACHN) | GI50 (CAKI-1) | GI50 (CCRF-CEM) | GI50 (HCC 2998) | GI50 (HCT-15) | GI50 (LOX IMVI) | GI50 (NCI-H460) | GI50 (NCI-H522) | GI50 (RXF 393) | GI50 (SK-MEL-28) | GI50 (SK-MEL-2) | GI50 (SK-OV-3) | GI50 (SW-620) | GI50 (UACC-62) | GI50 (RPMI-8226) | GI50 (OVCAR-4) | GI50 (MDA-MB-231) | GI50 (NCI/ADR-RES)
Nc1ncnc2c1ncn2CCOC(c1ccccc1)P(=O)(O)O (configuration not stated) | > 100 µM (inactive) | > 100 µM (inactive) | > 100 µM (inactive) | > 100 µM (inactive) | > 100 µM (inactive) | > 100 µM | > 100 µM (inactive) | > 100 µM (inactive) | > 100 µM (inactive) | > 100 µM (inactive) | > 100 µM (inactive) | > 100 µM (inactive) | > 100 µM (inactive) | > 100 µM (inactive) | > 100 µM (inactive) | – | – | – | –
COC(=O)c1nc(-c2ccc(Cl)c(Cl)c2)nc2ccc(Cl)cc12 | 27.5 µM (inactive) | 44.6 µM (inactive) | > 10 µM (inactive) | > 10 µM (inactive) | > 100 µM (inactive) | – | – | > 100 µM (inactive) | > 10 µM (inactive) | 22.8 µM (inactive) | > 100 µM (inactive) | > 100 µM (inactive) | 20.6 µM (inactive) | > 100 µM (inactive) | 87.3 µM (inactive) | > 100 µM (inactive) | – | – | –
CC(=O)OC12c3ccccc3C1CCCCCC21OCCCO1 (configuration not stated) | > 100 µM (inactive) | > 100 µM (inactive) | > 100 µM (inactive) | > 100 µM (inactive) | > 100 µM (inactive) | > 100 µM | > 100 µM (inactive) | > 100 µM (inactive) | > 100 µM (inactive) | > 100 µM (inactive) | > 100 µM (inactive) | > 100 µM (inactive) | > 100 µM (inactive) | – | > 100 µM (inactive) | > 100 µM (inactive) | > 100 µM (inactive) | – | –
C/C(=C\CC/C=C(\C)CC/C=C(\C)CCC1SC1(C)C)CC/C=C(\C)CCC1OC1(C)C (configuration not stated) | > 100 µM (inactive) | > 100 µM (inactive) | > 100 µM (inactive) | > 100 µM (inactive) | > 100 µM (inactive) | > 100 µM | – | > 100 µM (inactive) | 47.3 µM (inactive) | 89.7 µM (inactive) | > 100 µM (inactive) | > 100 µM (inactive) | > 100 µM (inactive) | > 100 µM (inactive) | – | > 100 µM (inactive) | > 100 µM (inactive) | – | –
Cc1cc(C)nc(NS(=O)(=O)c2ccc(NC(=O)c3cccc4c(Nc5ccc(S(=O)(=O)N=C(N)N)cc5)c5ccccc5nc34)cc2)n1 | 30.3 µM (inactive) | 47.1 µM (inactive) | 20.5 µM (inactive) | 45.6 µM (inactive) | 4.85 µM (inactive) | 30.1 µM | 39.5 µM (inactive) | 83.6 µM (inactive) | 44.3 µM (inactive) | 15.6 µM (inactive) | 33.4 µM (inactive) | 52.8 µM (inactive) | > 100 µM (inactive) | 9.48 µM (inactive) | 29.9 µM (inactive) | 15.1 µM (inactive) | 14.5 µM (inactive) | – | –
CC(C)C(/C=C/c1ccc(Br)cc1)=N\NC(N)=O | > 100 µM (inactive) | > 100 µM (inactive) | > 100 µM (inactive) | > 100 µM (inactive) | 12.3 µM (inactive) | > 100 µM | > 100 µM (inactive) | > 100 µM (inactive) | 70.3 µM (inactive) | > 100 µM (inactive) | > 100 µM (inactive) | > 100 µM (inactive) | > 100 µM (inactive) | > 100 µM (inactive) | > 100 µM (inactive) | > 100 µM (inactive) | > 100 µM (inactive) | – | –
C=C(Nc1nc2ccc(C)cc2s1)C(=O)C(CC)C(=O)C(CC)CC1C(=O)NC(=O)NC1=O (configuration not stated) | > 100 µM (inactive) | > 100 µM (inactive) | > 100 µM (inactive) | > 100 µM (inactive) | > 100 µM (inactive) | > 100 µM | > 100 µM (inactive) | > 100 µM (inactive) | > 100 µM (inactive) | > 100 µM (inactive) | > 100 µM (inactive) | > 100 µM (inactive) | > 100 µM (inactive) | > 100 µM (inactive) | > 100 µM (inactive) | – | > 100 µM (inactive) | > 100 µM (inactive) | > 100 µM (inactive)
CCOc1ccc2[nH]c3c(C)c4ccncc4c(C)c3c2c1 | 1.03 µM (active) | 1.07 µM (active) | 1.69 µM (inactive) | 0.649 µM (active) | 1.42 µM (inactive) | 0.448 µM | 1.2 µM (inactive) | 0.451 µM (active) | 1.45 µM (inactive) | 1.54 µM (inactive) | 1.91 µM (inactive) | 1.19 µM (inactive) | 3.91 µM (inactive) | 0.466 µM (active) | – | 1.36 µM (inactive) | 1.41 µM (inactive) | – | –
CN(C)C(=O)NC(=S)N(C)C | > 100 µM (inactive) | > 100 µM (inactive) | > 100 µM (inactive) | > 100 µM (inactive) | > 100 µM (inactive) | 17.1 µM | – | > 100 µM (inactive) | > 100 µM (inactive) | > 100 µM (inactive) | > 100 µM (inactive) | > 100 µM (inactive) | > 100 µM (inactive) | > 100 µM (inactive) | > 100 µM (inactive) | > 100 µM (inactive) | > 100 µM (inactive) | – | –
CN(C)CC1CCC/C1=N\O (configuration not stated) | > 100 µM (inactive) | > 100 µM (inactive) | > 100 µM (inactive) | > 100 µM (inactive) | > 100 µM (inactive) | > 100 µM | > 100 µM (inactive) | > 100 µM (inactive) | > 100 µM (inactive) | > 100 µM (inactive) | > 100 µM (inactive) | > 100 µM (inactive) | > 100 µM (inactive) | > 100 µM (inactive) | > 100 µM (inactive) | > 100 µM (inactive) | > 100 µM (inactive) | – | –
CCOc1ccc(C2=NN(CC)C(=O)C(C3C(=O)N(c4ccccc4)N=C3C)C2)cc1 (configuration not stated) | > 100 µM (inactive) | > 100 µM (inactive) | > 100 µM (inactive) | > 100 µM (inactive) | > 100 µM (inactive) | > 100 µM | > 100 µM (inactive) | > 100 µM (inactive) | > 100 µM (inactive) | > 100 µM (inactive) | > 100 µM (inactive) | > 100 µM (inactive) | > 100 µM (inactive) | > 100 µM (inactive) | > 100 µM (inactive) | > 100 µM (inactive) | > 100 µM (inactive) | – | –
CN(C)CCCNc1cnc2cc3ccccc3cc2n1 | 31 µM (inactive) | 31.2 µM (inactive) | 22.4 µM (inactive) | 42 µM (inactive) | 17.2 µM (inactive) | 18.4 µM | 14.3 µM (inactive) | 33.3 µM (inactive) | 19.8 µM (inactive) | 21.6 µM (inactive) | 22.6 µM (inactive) | 19.5 µM (inactive) | 55.1 µM (inactive) | 37.4 µM (inactive) | 15.6 µM (inactive) | 33.3 µM (inactive) | 23.8 µM (inactive) | 16.4 µM (inactive) | –
Cc1nccc2c1cnc1ccnn12 | > 100 µM (inactive) | > 100 µM (inactive) | > 100 µM (inactive) | > 100 µM (inactive) | > 100 µM (inactive) | > 100 µM | > 100 µM (inactive) | > 100 µM (inactive) | > 100 µM (inactive) | > 100 µM (inactive) | > 100 µM (inactive) | > 100 µM (inactive) | > 100 µM (inactive) | > 100 µM (inactive) | – | > 100 µM (inactive) | > 100 µM (inactive) | – | –
